Experimental data reported in paper PMC10214526, “Semisynthetic LC3 Probes for Autophagy Pathways Reveal a Noncanonical LC3 Interacting Region Motif Crucial for the Enzymatic Activity of Human ATG3” (ACS Central Science, 2023).

How the values were obtained:
[1] = target: T1, ATG3 C1–GABARAP (probe 2) complex formation (Homo sapiens, UniProt O95166); experiment: Competition assay: LIR^ATG3 peptides vs cross-linking of GABARAP methyl fumarate probe 2 with ATG3 C1; format: biochemical; settings: probe 2 (15 μM) with ATG3 C1 in the presence of increasing amounts of peptide
T1 construct: SUMO2 (N, cleaved yes); Mxe GyrA intein-His6 (C, cleaved yes); made in house; host or cells: E. coli Rosetta-CodonPlus (DE3)-RIL
Protocol: To exclude an effect of LIR deletion on protein activity we performed a competition experiment with chemically prepared LIR (L94-H112) peptide 5. Probe 2 (15 μM) was incubated with ATG3 C1 in the presence of increasing amounts of 5. […] We also postulated that cyclization of the LIR peptide would recapitulate its β-sheet conformation and lead to tighter binding than the linear peptide due to preorganization.[37] […] Cyclic peptide 6 was prepared by solid-phase peptide synthesis followed by cyclization using selective cysteine alkylation (Figure S11).[39],[40] […] Additionally, we confirmed the interaction of LIR^ATG3 peptides with GABARAP and LC3A by fluorescence polarization (Figure 2e–g). LIR^ATG3-derived peptides bind to both LC3A and GABARAP. As indicated by the competition experiments, cyclic peptides bound markedly tighter to GABARAP and LC3A than the linear peptides. […]
Figure 2 Characterization of LIR^ATG3. a. […] Quantification of competition assays shown in b and c. The amount of GABARAP–ATG3 C1 complex was quantified by gel-densitometry and normalized to the reaction without peptide for each gel. […] Fluorescence polarization binding-data of fluorescein-modified LIR^ATG3 peptide binding to GABARAP. […] Fluorescence polarization data of fluorescein-modified LIR^ATG3 peptide binding to LC3A. […]
Farnung et al. Supplementary Information and monitored using LC-MS analysis. […]

[2] = Circular dichroism spectroscopy of LIR^ATG3 peptides; format: physicochemical; settings: 700 μM peptide, 20 mM potassium phosphate pH 7.2, 20 °C, 180-300 nm, 5x averaged
From the text: Farnung et al. Supplementary Information […]
H Capping with O H Resin cleavage O H Cyclization O […]
acid anhydride deprotection
Figure S11. Preparation of cyclized LIRATG3 peptide 6. a, Synthetic scheme describing the preparation of 6.
A cysteine residue is introduced at the C-terminus of the LIR motif. Following standard Fmoc-SPPS the LIR peptide is capped at its N-terminus with α-chloroacetic acid anhydride. Following resin cleavage, the peptide is cyclized by cysteine alkylation. b, Analytical RP-HPLC chromatograms showing the cyclization of the LIR […]
peptide to provide 6. […] Middle chromatogram
Figure S12. CD spectra of linear and cyclic LIR ATG3 peptides 5 and 6. CD spectra of LIRATG3 peptides 5 and 6 were recorded in 20 mM KPhos buffer (pH 7.2) at a concentration of 700 μM. Cyclized LIRATG3 peptide 6 […]
nm and an increase in band intensity at 215 nm.
Plasmid Supplier Identiﬁer Dilution
Anti-ATG5 Cell-Signalling #D5F5U 1:1,000
Anti-β-Actin Thermo-Fisher #BA3R 1:2,000
Table S2 Antibodies used in this study.
2.9. Circular dichroism spectroscopy
CD spectra were recorded on a JASCO J-1500 CD spectrometer in a 0.1 cm cuvette. Samples were measured in potassium phosphate (20 mM, pH 7.2) at 20 °C. Data were recorded between 180-300 nm with a measuring speed of 20 nm/min. Measurements were repeated (5x) and averaged.
Background spectrum was recorded and subtracted from measured spectra. […]

T1 sequence (O95166 1-115 limits assumed, one chain of several): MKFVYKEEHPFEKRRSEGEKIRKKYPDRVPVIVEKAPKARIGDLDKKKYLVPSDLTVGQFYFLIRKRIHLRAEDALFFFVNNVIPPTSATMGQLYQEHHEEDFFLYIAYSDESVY

Ac-LEAIIEEDDGDGGWVDTYHAGGGK-OH [compound 5]
Block of ATG3 modification [1]: blocked ATG3 modification in a concentration-dependent manner | Secondary structure by CD [2]: not structured in solution
